Results on three compounds are retold here after patent publication US5486469A, “Thermostable Fervidobacterium pullulanases” (Novo Nordisk A/S, priority 1991, dated 1996).

This experiment has as its target T1, Fervidobacterium sp. Ven 5, DSM 6204 pullulanase, purified native enzyme (Fervidobacterium pennivorans, UniProt Q9XDB5).
T1 construct: Ven 5; single SDS-PAGE band of 78 kDa; not the E. coli clone PL2125
T1 sequence (Q9XDB5 29-849): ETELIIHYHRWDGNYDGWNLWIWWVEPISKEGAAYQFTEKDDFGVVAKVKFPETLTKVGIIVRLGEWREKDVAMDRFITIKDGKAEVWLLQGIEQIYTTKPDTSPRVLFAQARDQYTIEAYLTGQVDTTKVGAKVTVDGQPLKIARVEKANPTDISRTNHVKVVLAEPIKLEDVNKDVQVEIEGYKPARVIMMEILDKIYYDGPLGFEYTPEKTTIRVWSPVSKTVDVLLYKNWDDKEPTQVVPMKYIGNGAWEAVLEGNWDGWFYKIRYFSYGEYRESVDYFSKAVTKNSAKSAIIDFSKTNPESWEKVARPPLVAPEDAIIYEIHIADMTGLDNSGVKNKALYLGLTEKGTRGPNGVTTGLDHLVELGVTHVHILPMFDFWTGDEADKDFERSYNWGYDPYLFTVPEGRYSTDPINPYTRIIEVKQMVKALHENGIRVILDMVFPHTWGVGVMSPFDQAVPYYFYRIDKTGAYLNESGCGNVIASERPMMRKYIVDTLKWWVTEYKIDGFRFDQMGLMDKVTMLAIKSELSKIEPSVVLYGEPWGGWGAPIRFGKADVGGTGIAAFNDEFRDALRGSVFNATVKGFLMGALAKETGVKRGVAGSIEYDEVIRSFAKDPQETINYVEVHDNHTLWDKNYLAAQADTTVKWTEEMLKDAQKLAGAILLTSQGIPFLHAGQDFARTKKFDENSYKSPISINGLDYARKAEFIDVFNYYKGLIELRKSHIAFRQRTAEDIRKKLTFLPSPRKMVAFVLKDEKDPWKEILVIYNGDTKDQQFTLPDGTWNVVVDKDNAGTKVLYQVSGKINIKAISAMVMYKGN
As to the kind of experiment: Influence of cyclodextrins and EDTA on pullulytic activity (reducing sugars liberated from pullulan). Format: biochemical. Particulars: for Influence on the pullulytic activity (in words): up to 5 mM. The procedure:
Pullulanase activity was measured by determining the amount of reducing sugars liberated during incubation with pullulan at 85° C. and pH 6.0. The activity of 1 U of pullulanase was defined as that amount of enzyme which liberates 1 μmol of reducing sugar per minute using maltose as a standard. The enzymatic reactions were conducted in 50 mM sodium-phosphate buffer, pH 6.0, the concentration of the substrate was 0.5% (w/v).
The reaction mixture was prepared by adding 50 μl enzyme solution to 200 μl substrate solution. The mixture was incubated at 85° C. for 5 minutes, cooled and diluted with 2.5 ml water. After incubation 250 μl dinitrosalicylic acid reagent (i.e. dinitrosalicylic acid 1 g, 2 N NaOh 20 ml, K-Na-tartrate×4 H2 O 30 g, and distilled water 100 ml) were added. The optical density was measured at 546 nm against a mixture which was not incubated.
6) Influence of metal ions,
The concentration of inhibitors was:
Metal ions and cyclodextrins
The purified pullulanase obtained according to Ex. 2 was subjected to characterization using the method for analyzing pullulanase activity described in Ex. 1.
To investigate the influence of metal ions, cyclodextrins and various glucose polymers on the activity of the pullulanase the purified enzyme was incubated with a 0.5% pullulan solution (pH 6.0) in the presence of up to 5 mM of metal ions and cyclodextrins. Amylose, starch, glycogen, pullulan and branched oligosaccharides were added in concentrations of up to 0.05%.

Setting [1] is: pH 6, read-out: Activity (%) of pullulanase in the presence of inhibitor.

The structures appear in SMILES notation. Like-named read-outs stand apart in the source and are kept apart here.

`O=C(O)CN(CCN(CC(=O)O)CC(=O)O)CC(=O)O` [EDTA]: the inhibition at 5000 µM under setting [1] worked out at 100%. In addition, for the setting “0.5% pullulan solution, pH 6.0”, the “Influence on the pullulytic activity (in words)” value (“Influence” for short) is on record as “did not influence the pullulytic activity”.

Regarding `OCC1OC2OC3C(CO)OC(OC4C(CO)OC(OC5C(CO)OC(OC6C(CO)OC(OC7C(CO)OC(OC1C(O)C2O)C(O)C7O)C(O)C6O)C(O)C5O)C(O)C4O)C(O)C3O` (stereo not drawn) [α-Cyclodextrin], the inhibition at 5000 µM under setting [1] is 57%. Also, where the note is “0.5% pullulan solution, pH 6.0”, the “Influence” value is “decreased the activity of the enzyme slightly”.

Consider `OCC1OC2OC3C(CO)OC(OC4C(CO)OC(OC5C(CO)OC(OC6C(CO)OC(OC7C(CO)OC(OC8C(CO)OC(OC1C(O)C2O)C(O)C8O)C(O)C7O)C(O)C6O)C(O)C5O)C(O)C4O)C(O)C3O` (stereo not drawn) [β-Cyclodextrin], for which, where the note is “5 mM inhibitor, 0.5% pullulan solution, pH 6.0, 1.0 U/ml pullulanase, no inhibitor = 100, read-out: Activity (%) of pullulanase in the presence of inhibitor”, the inhibition at 5000 µM came out at 4%. Moreover, for the setting “0.5% pullulan solution, pH 6.0”, the “Influence” value is on record as “inhibited completely”.
